Measured values from article PMC4468608, “A distinct p53 target gene set predicts for response to the selective p53–HDM2 inhibitor NVP-CGM097” (eLife, 2015).
Where two headings read alike, the source gives them in different places.

Test system: cell lines from the Cancer Cell Line Encyclopedia (CCLE)
Experiment: High-throughput cell viability assay, CCLE cell line panel (n = 356)
Type: cell-based, human
Details: Homo sapiens
Experimental: Cell lines were partitioned into sensitive and insensitive groups based on compound potency (IC50). […] All other cell lines were obtained from ATCC (American Type Culture Collection), DSMZ (Deutsche Sammlung von Mikroorganismen und Zellkulturen), and HSRRB (Health Science Research Resources Bank) and cultured in RPMI or Dulbecco's modified Eagle's medium plus 10% FBS (Invitrogen, Carlsbad, CA) at 37°C, 5% CO2.

COc1cc2c(cc1OC(C)C)[C@H](c1ccc(Cl)cc1)N(c1ccc(N(C)C[C@H]3CC[C@H](N4CCNC(=O)C4)CC3)cc1)C(=O)C2 [NVP-CFC218]
IC50 (HCC-56, TP53 MUT): > 8 µM
IC50 (HCT 116 TP53(-/-), HCT 116, TP53 WT): 3.38 µM
IC50 (HCT-15, HCT-15, TP53 MUT): > 8 µM
IC50 (HD-MY-Z, TP53 MUT): > 8 µM
IC50 (HEC-50B, TP53 MUT): > 8 µM
IC50 (HEC-59, TP53 MUT): > 8 µM
IC50 (HEC-151, TP53 MUT): 7.91 µM
IC50 (HEL 92.1.7, HEL 92.1.7, TP53 MUT): > 8 µM
IC50 (HEY A8, Hey-A8, TP53 WT): 3.12 µM
IC50 (HGC-27, HGC-27, TP53 MUT): 7.41 µM
IC50 (HH, TP53 MUT): > 8 µM
IC50 (HLF, TP53 MUT): > 8 µM
IC50 (HMC-1-8, TP53 MUT): > 8 µM
IC50 (HPBALL, HPB-ALL, TP53 MUT): > 8 µM
IC50 (HSC-2, read-out: NVP- CFC218 IC50 (µM), cell line HSC-2, upper_aerodigestive_tract, TP53 MUT): > 8 µM
IC50 (HSC-3, HSC-3, TP53 MUT): > 8 µM
IC50 (HSC-4, HSC-4, TP53 MUT): > 8 µM
IC50 (HT-29, HT-29, TP53 MUT): > 8 µM
IC50 (HT-144, HT-144, TP53 WT): 3.86 µM
IC50 (HepG2, Hep G2, TP53 WT): 1.95 µM
IC50 (Hs 294T, TP53 MUT): 3.61 µM
IC50 (Hs 683, Hs 683, TP53 MUT): > 8 µM
IC50 (Hs 695T, TP53 WT): 3.65 µM
IC50 (Hs 729, TP53 MUT): > 8 µM
IC50 (Hs746T, Hs 746T, TP53 MUT): > 8 µM
IC50 (Hs766T, Hs 766T, TP53 MUT): > 8 µM
IC50 (Hs 936.T, TP53 WT): 6.44 µM
IC50 (Hs-578T, Hs 578T, TP53 MUT): > 8 µM
IC50 (HuCCT-1, HuCCT1, TP53 MUT): > 8 µM
IC50 (HuT78, HuT 78, TP53 MUT): > 8 µM
IC50 (Huh-7, HuH-7, TP53 MUT): > 8 µM
IC50 (IA-LM, TP53 MUT): > 8 µM
IC50 (IGR-39, IGR-39, TP53 MUT): > 8 µM
IC50 (IGROV-1, IGROV1, TP53 MUT): > 8 µM
IC50 (IM95, read-out: NVP- CFC218 IC50 (µM), cell line IM95, stomach, TP53 WT): > 8 µM
IC50 (IPC-298, IPC-298, TP53 MUT): > 8 µM
IC50 (IST-MES2, TP53 MUT): > 8 µM
IC50 (J82, TP53 MUT): > 8 µM
IC50 (JHH7, JHH-7, TP53 MUT): > 8 µM
IC50 (JHH-4, JHH-4, TP53 MUT): > 8 µM
IC50 (JHUEM-2, TP53 WT): 1.73 µM
IC50 (JMSU-1, JMSU-1, TP53 MUT): > 8 µM
IC50 (JVM-3, JVM-3, TP53 WT): 3.64 µM
IC50 (K029AX, TP53 WT): 3.61 µM
IC50 (KARPAS-299, KARPAS-299, TP53 MUT): > 8 µM
IC50 (KATO III, TP53 MUT): > 8 µM
IC50 (KCL-22, KCL-22, TP53 MUT): > 8 µM
IC50 (KE-39, TP53 MUT): > 8 µM
IC50 (KE-97, KE-97, TP53 WT): 1.38 µM
IC50 (KMBC-2, TP53 MUT): 3.55 µM
IC50 (KMM-1, KMM-1, TP53 MUT): > 8 µM
IC50 (KMRC-1, read-out: NVP- CFC218 IC50 (µM), cell line KMRC-1, kidney, TP53 WT): > 8 µM
IC50 (KMS-11, KMS-11, TP53 WT): > 8 µM
IC50 (KMS-26, KMS-26, TP53 MUT): > 8 µM
IC50 (KMS-27, read-out: NVP- CFC218 IC50 (µM), cell line KMS-27, haem._and_lymphoid_tissue, TP53 WT): > 8 µM
IC50 (KMS-28BM, read-out: NVP- CFC218 IC50 (µM), cell line KMS-28BM, haem._and_lymphoid_tissue, TP53 WT): > 8 µM
IC50 (KNS-42, read-out: NVP- CFC218 IC50 (µM), cell line KNS-42, central_nervous_system, TP53 MUT): > 8 µM
IC50 (KNS-60, TP53 MUT): > 8 µM
IC50 (KNS-62, KNS-62, TP53 MUT): > 8 µM
IC50 (KO52, TP53 MUT): > 8 µM
IC50 (KP4, TP53 WT): > 8 µM
IC50 (KP-2, TP53 MUT): > 8 µM
IC50 (KP-3, TP53 MUT): > 8 µM
IC50 (KP-N-SI9s, TP53 WT): 1.2 µM
IC50 (KS-1, TP53 WT): 2.2 µM
IC50 (KU812, KU812, TP53 MUT): > 8 µM
IC50 (KU-19-19, KU-19-19, TP53 WT): 6.89 µM
IC50 (KYM-1, TP53 WT): 2.95 µM
IC50 (KYSE-30, KYSE-30, TP53 MUT): > 8 µM
IC50 (KYSE-70, KYSE-70, TP53 MUT): > 8 µM
IC50 (KYSE-140, KYSE-140, TP53 MUT): > 8 µM
IC50 (KYSE-180, KYSE-180, TP53 MUT): > 8 µM
IC50 (KYSE-410, read-out: NVP- CFC218 IC50 (µM), cell line KYSE-410, oesophagus, TP53 MUT): > 8 µM
IC50 (KYSE-450, read-out: NVP- CFC218 IC50 (µM), cell line KYSE-450, oesophagus, TP53 MUT): > 8 µM
IC50 (KYSE-510, read-out: NVP- CFC218 IC50 (µM), cell line KYSE-510, oesophagus, TP53 MUT): > 8 µM
IC50 (KYSE-520, read-out: NVP- CFC218 IC50 (µM), cell line KYSE-520, oesophagus, TP53 MUT): > 8 µM
IC50 (L3.3, TP53 WT): > 8 µM
IC50 (L-363, L-363, TP53 MUT): > 8 µM
IC50 (L-428, read-out: NVP- CFC218 IC50 (µM), cell line L-428, haem._and_lymphoid_tissue, TP53 MUT): > 8 µM
IC50 (LC-1/sq-SF, TP53 MUT): > 8 µM
IC50 (LCLC-103H, TP53 MUT): > 8 µM
IC50 (LK-2, TP53 MUT): > 8 µM
IC50 (LN-18, LN-18, TP53 MUT): > 8 µM
IC50 (LN-229, read-out: NVP- CFC218 IC50 (µM), cell line LN-229, central_nervous_system, TP53 WT): > 8 µM
IC50 (LOU-NH91, LOU-NH91, TP53 MUT): > 8 µM
